These results are taken from article PMC9636434, “Discovery of small molecule agonists of the Relaxin Family Peptide Receptor 2” (Communications Biology, 2022).

“And” between values parts separate entries of the source, which are not always exact repeats. Equal entries are not always repeated. Where two headings read alike, the source gives them in different places.

Data set [1] concerns HCO cells. Description: CellTiter-Glo cytotoxicity assay in HCO cells. It is filed as cell-based, human. The conditions noted are these: experiments (1)-(3). From the text:
Fig. 4 RXFP2 agonists induce mineralization of primary human osteoblasts and are non-cytotoxic. a Mineral hydroxyapatite fluorescent quantification after 14-day treatment in HCO cells. Results were normalized to control DMSO as 100% mineralization. b HCO and c HAVSMC toxicity after 24-h treatment with RXFP2 agonists, normalized to DMSO treatment as 0% toxicity. Results are expressed as mean ± SEM of 3 independent experiments. *p < 0.05, *** p < 0.001 vs. DMSO using One-way ANOVA.
Cell viability studies were undertaken to identify potential cytotoxic effects of the RXFP2 agonists. HCO cells and human aortic vascular smooth muscle cells (HAVSMC) were treated for 24 h. […] At 8.3 µM and below, no toxicity was found in HCO cells and toxicity was below 20% in HAVSMC cells for all three compounds (Fig. 4b, c).
The ATP CellTiter-Glo Luminescent Cell Viability Assay (Promega, Madison, WI) was used to measure cytotoxicity induced by the compounds in HCO cells and human aortic vascular smooth muscle cells (HAVSMC) (ATCC, Manassas, VA). HCO and HAVSMC cells were seeded in 96-well plates at 3000 and 7000 cells per well respectively. Cells were incubated overnight, treated with compound or DMSO vehicle and incubated for 24 h at 37 °C, 5% CO2. […] Plates were shaken for 2 min, incubated at room temperature for 10 min and the luminescent signal was read on a CLARIOstar plate reader.
A general note: Cellular ATP, detected with luciferase, serves as a proxy for viable cell number.

Data set [2] deals with RXFP2 (Homo sapiens, UniProt Q8WXD0). Description: HTRF cAMP assay in HEK-RXFP2 cells (stably transfected; also primary HTS). It is filed as cell-based. Set-up: FLAG (N); expressed in transfected cells. The conditions noted are these: for % Eff (cAMP response): experiments (1)-(3), 100 nM INSL3 = 100%, DMSO = 0%; for EC50: HEK-RXFP2. The protocol:
A quantitative high-throughput screening (HTS) of more than 80 K compounds of the NCATS/NIH diversity collection was performed at four concentrations in HEK293T cells stably expressing human RXFP2 to identify candidate agonists. A homogenous time resolved fluorescence (HTRF) assay was used to directly detect compound-induced cAMP accumulation, with forskolin or human recombinant INSL3 serving as positive controls. […] A confirmatory CRE-luciferase cAMP screen was used to eliminate any potential false positives due to assay detection artifacts (Supplementary Fig. 1a).
The cAMP response induced by the compounds was normalized to the cAMP response induced by 100 nM INSL3 as 100% efficacy and the cAMP response induced by DMSO vehicle as 0% efficacy. Emax and EC50 were calculated using four parameter nonlinear fit dose-response stimulation curves. […] Molecular weight (MW).
(§1) The HTRF Gs dynamic cAMP assay kit (CisBio, Bedford, MA) was used to measure intracellular cAMP accumulation in HEK293T cells (ATCC, Manassas, VA)[56]. […] The cell stock was verified mycoplasma free and authenticated by ATCC. Transient transfection was accomplished by treating cells in a 6-well plate with a mixture of 2 μg plasmid and 6 μL Lipofectamine 2000 (Invitrogen, Waltham, MA) per manufacturer’s protocol and incubating overnight. For cAMP measurement in 96-well format, HEK293T cells stably transfected with human RXFP2 (HEK-RXFP2), human RXFP1 (HEK-RXFP1), mouse Rxfp1 (HEK-Rxfp1) or transiently transfected with human RXFP1-RXFP2 chimeric receptors were seeded between 7500 and 30,000 cells per well, depending on cell line responsiveness, in serum-free DMEM medium and incubated overnight at 37 °C, 5% CO2. After 18 h, cells were treated with a titration of compound, 2 μM forskolin, or DMSO vehicle. Control wells were also treated with a titration of INSL3 (Phoenix Pharmaceuticals, Burlingame, CA) or human recombinant relaxin 2 (Peprotech, Cranbury, NJ). For the RXFP2 antagonist experiment, cells were co-treated with 0.28 μM compound or 30 nM INSL3 and a titration of the INSL3 B dimer antagonist[38],[39]. For the INSL3 allosteric modulation experiment, cells were co-treated with 0.025, 0.0025, or 0.00025 μM of compound and a titration of INSL3. Cells were incubated for 1 h at 37 °C, 5% CO2, and then kit cAMP-d2 and anti-cAMP antibody were added per manufacturer protocol. Plates were incubated for 1 h at room temperature and the signal was read on a CLARIOstar plate reader (BMG Labtech, Ortenberg, Germany) at 665 and 620 nm emission wavelengths.

In data set [3] the target is chimera RXFP1-2 (extracellular domain of RXFP1, transmembrane domain of RXFP2) (Homo sapiens, UniProt Q8WXD0). Description: HTRF cAMP assay in HEK293T cells transiently transfected with chimera RXFP1-2. It is filed as cell-based. As to conditions: for Emax: HEK-293T. The protocol:
(§2) Fig. 2 6641 is an allosteric agonist of RXFP2. a HEK-RXFP2 cells co-treated with serial dilutions of INSL3 B dimer antagonist and 30 nM INSL3 or 0.28 µM 6641. HTRF cAMP dose-response inhibition curves were normalized to activity without antagonist co-treatment as 0% inhibition. b HTRF cAMP assay in HEK293T cells transiently transfected with WT or chimeric receptors. Chimera RXFP2-1 contains the extracellular domain of RXFP2 and the transmembrane domain of RXFP1, while chimera RXFP1-2 contains the extracellular domain of RXFP1 and the transmembrane domain of RXFP2. For each receptor, cAMP response induced by INSL3 and 6641 was normalized to FSK (2 µM) as 100% efficacy and DMSO vehicle as 0% efficacy. Emax and EC50 were calculated using four parameter nonlinear fit dose-response curves. Results are expressed as mean ± SEM of 3 independent experiments. Diagrams of the chimeric receptors were produced using GPCRdb.org[58], [59].
(§3) Complementary RXFP2-1 and RXFP1-2 chimeric receptors were used to further investigate the involvement of the RXFP2 extracellular and transmembrane domains on 6641 activity. RXFP2-1 has the extracellular domain of RXFP2 and transmembrane domain of RXFP1, and RXFP1-2 is its complement.
as §1
A general note: TR-FRET usually uses a lanthanide donor and a delayed reading to cut background.

Data set [4] concerns chimera RXFP1-2 (extracellular domain of RXFP1, transmembrane domain of RXFP2). The data set is described as above. It is filed as cell-based, human. The protocol: as §2, §3, §1
In data set [5] the target is CCKAR (Homo sapiens, UniProt P32238). Description: PRESTO-Tango β-arrestin recruitment, CCKAR. As to conditions: 10 µM compound; basal level of detection 3-fold RLU. It is filed as cell-based. A general note: Activated receptors often draw arrestin, which recruitment assays turn into a signal.
Where [6] appears, read: 6641, individual experiments, read-out: EC50 (1)-(3).

By EC50 is commonly meant the concentration at which the effect is half-maximal. As a reminder, the Emax is the size of the effect at its maximum, as opposed to the concentration needed.

Chain of chimera RXFP1-2 (extracellular domain of RXFP1, transmembrane domain of RXFP2) (Q8WXD0 417-754 limits assumed, change not shown): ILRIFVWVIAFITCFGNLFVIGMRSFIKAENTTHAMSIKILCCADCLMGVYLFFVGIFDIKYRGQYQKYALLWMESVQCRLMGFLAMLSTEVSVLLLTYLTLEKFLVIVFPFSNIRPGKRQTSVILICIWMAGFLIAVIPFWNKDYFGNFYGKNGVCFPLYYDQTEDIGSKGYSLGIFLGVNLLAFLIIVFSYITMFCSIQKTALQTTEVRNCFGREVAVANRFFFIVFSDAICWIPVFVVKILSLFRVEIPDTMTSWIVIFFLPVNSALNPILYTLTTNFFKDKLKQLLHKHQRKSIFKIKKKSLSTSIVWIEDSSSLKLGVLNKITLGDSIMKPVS
Chain of chimera RXFP1-2 (extracellular domain of RXFP1, transmembrane domain of RXFP2) (Q9HBX9 1-409, change not shown, further chain): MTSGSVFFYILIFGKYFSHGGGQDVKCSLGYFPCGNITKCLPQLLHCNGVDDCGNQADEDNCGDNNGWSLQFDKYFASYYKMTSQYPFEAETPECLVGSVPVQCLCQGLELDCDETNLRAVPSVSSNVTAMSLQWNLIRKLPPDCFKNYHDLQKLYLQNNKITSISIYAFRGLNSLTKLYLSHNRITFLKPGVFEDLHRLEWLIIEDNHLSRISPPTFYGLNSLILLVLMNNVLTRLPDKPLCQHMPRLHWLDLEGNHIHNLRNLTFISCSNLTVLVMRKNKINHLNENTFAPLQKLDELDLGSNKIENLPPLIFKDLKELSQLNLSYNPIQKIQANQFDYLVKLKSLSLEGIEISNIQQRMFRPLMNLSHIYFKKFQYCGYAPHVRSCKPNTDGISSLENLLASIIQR
Chain of chimera RXFP1-2 (extracellular domain of RXFP1, transmembrane domain of RXFP2) (Homo sapiens, UniProt Q8WXD0) (Q8WXD0 417-754 limits assumed, stated change not applied): as the sequence (Q8WXD0 417-754 limits assumed, change not shown) above
Chain of chimera RXFP1-2 (extracellular domain of RXFP1, transmembrane domain of RXFP2) (Homo sapiens, UniProt Q8WXD0) (Q9HBX9 1-409, stated change not applied, further chain): as the sequence (Q9HBX9 1-409, change not shown, further chain) above
Chain of RXFP2 (Q8WXD0 whole entry): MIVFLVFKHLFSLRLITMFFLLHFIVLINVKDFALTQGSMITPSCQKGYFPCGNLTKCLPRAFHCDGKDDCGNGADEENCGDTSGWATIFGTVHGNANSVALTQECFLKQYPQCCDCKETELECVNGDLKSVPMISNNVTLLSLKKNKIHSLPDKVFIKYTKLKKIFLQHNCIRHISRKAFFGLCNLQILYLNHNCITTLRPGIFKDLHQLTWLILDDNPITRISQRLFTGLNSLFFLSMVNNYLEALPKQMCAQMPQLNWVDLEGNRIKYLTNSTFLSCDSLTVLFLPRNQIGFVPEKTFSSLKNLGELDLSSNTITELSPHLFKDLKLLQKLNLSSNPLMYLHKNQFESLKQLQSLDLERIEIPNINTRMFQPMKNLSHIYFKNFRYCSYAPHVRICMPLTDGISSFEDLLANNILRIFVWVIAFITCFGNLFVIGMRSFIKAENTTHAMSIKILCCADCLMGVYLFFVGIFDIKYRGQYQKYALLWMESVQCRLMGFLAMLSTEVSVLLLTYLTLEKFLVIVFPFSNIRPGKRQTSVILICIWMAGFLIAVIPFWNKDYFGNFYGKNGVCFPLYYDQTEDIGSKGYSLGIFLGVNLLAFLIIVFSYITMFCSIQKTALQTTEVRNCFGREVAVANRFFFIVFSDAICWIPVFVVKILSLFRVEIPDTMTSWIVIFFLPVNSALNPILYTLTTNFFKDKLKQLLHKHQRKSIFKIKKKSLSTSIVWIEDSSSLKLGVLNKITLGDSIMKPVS
Chain of CCKAR (P32238 whole entry): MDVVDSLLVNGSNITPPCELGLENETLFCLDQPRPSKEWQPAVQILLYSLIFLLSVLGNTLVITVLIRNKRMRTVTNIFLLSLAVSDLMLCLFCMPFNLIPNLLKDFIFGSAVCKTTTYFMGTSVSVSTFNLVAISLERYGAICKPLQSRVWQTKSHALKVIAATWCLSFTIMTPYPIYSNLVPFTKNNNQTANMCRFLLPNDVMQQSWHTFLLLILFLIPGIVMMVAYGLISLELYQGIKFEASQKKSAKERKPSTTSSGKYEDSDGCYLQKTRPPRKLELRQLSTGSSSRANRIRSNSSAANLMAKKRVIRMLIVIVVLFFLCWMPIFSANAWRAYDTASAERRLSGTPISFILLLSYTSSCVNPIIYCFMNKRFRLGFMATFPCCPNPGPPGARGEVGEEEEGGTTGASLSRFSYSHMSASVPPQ

Regarding `O=C1Nc2ccc(-c3cc(C(F)(F)F)cc(C(F)(F)F)c3)cc2C(=O)N2CCN(C(=O)COc3ccc(OC(F)(F)F)cc3I)C[C@@H]12` [compound 6641], the “% Tox” value in data set [1] (Log [M] -6.03, 24 h) was -11.63% and -7.45% and -4.96%; in data set [1] (Log [M] -6.51, 24 h) it was -9.76% and -5.09% and -6.71%. The “% Eff (cAMP response)” value in data set [2] (Log [M] -4.60) is 104.78% and 100.31% and 87.28%; in data set [2] (Log [M] -5.60), 76.57% and 72.45% and 73.51%; in data set [2] (Log [M] -6.60), 55.58% and 48.02% and 47.8%; in data set [2] (Log [M] -7.60) it was 15.09% and 15.05% and 13.98%; in data set [2] (Log [M] -8.60), 1.51% and 0.43% and 1.99%; in data set [2] (Log [M] -9.60), -0.34% and 0.01% and 0.17%. For the same compound, the “Emax (1)-(3)” value in data set [2] (individual experiments, % vs. 100 nM INSL3) is 115% and 116.5% and 89.48%; in data set [4] (individual experiments, FSK (2 µM) = 100% efficacy), 95.72% and 97.22%. The EC50 in data set [2] (individual experiments, read-out: EC50 (1)-(3)) was 358 nM and 568 nM and 217 nM; in data set [2] (mean (± SEM) of 3 independent experiments, read-out: EC50 (AVERAGE)), 380 nM and < 1000 nM; in data set [3] (setting [6]) it was 19 nM and 14 nM; in data set [4] (setting [6]) it was 17 nM. Besides, in data set [2] (mean (± SEM) of 3 independent experiments), the “Emax (% vs. 100 nM INSL3) (AVERAGE)” value was 107% and 106.99 ± 8.77% and 106.99%. For the same compound, the Emax in data set [3] (individual experiments, FSK (2 µM) = 100% efficacy, read-out: Emax (1)-(3)) is 96.5%; in data set [3] (mean (± SEM) of 3, FSK (2 µM) = 100% efficacy, read-out: Emax (AVERAGE)), 96.47 ± 0.43%. Further, in data set [5], the “β-arrestin recruitment, CCKAR (mean ± SEM)” value turned out to be 3.42 ± 0.15 fold RLU.
